Read-outs that look alike come from different tables or passages of the source.
Molecular target: T1, HIV-1 protease (Human immunodeficiency virus type 1 group M subtype B, UniProt P04585)
T1 construct: Purified HIV-1 protease was obtained as described below; made in house; host or cells: E. coli K12 L507/pHP10D (NRRL B-18560)
Experiment: biochemical
Settings: for IC50: read-out: Fluorescence Assay IC50 (converted)
Experimental: N^α -Biotin-[…]Ne-FITC)-OH
The purified peptide was labeled as follows with a fluorescent marker at the C-terminal end for use in the assay. N^α -Biotin-Gly-Ser-Gln-Asn-Tyr-Pro-lle-Val-Gly-Lys-OH (1.206 g, 0.936 mmoles) was dissolved in 100 mL of 0.1M sodium borate, pH 9.5 with stirring. Then, 3 g of fluorescein isothiocyanate (7.7 mmol) was dissolved in 15 mL dimethyl sulfoxide and the solution added to the reaction in 10 equal portions over the course of a two hour period. The reaction was allowed to proceed for a further one hour after the final addition had been made. The pH of the solution was adjusted to 3 with 5N HCl. A precipitate formed which was removed from the reaction by centrifugation.
Fluorescence HIV-1 Protease Inhibitor Assay Procedure.
To each well of a round bottom, 96-well plate is added 20 μl of the Enzyme Solution followed by 10 μl of the compound to be evaluated in 20% aqueous DMSO. Purified HIV-1 protease was obtained as described below. The solution is incubated for one hour at room temperature and then 20 μl of a solution of the substrate N^α -Biotin-[…]N^e -FITC)-OH, in MES-ALB buffer (1.5 μl/ml) is added to each well. The solutions are incubated for 16 hours at room temperature and thereafter to each well is added 150 μl of MES-ALB buffer.
To each well of a 96-well Pandex plate is added 25 μl of the Avidin Coated Beads Solution. Next, 25 μl of the diluted incubation solutions, described above, are added to each well of the Pandex plate. The solutions are mixed well and the plates are loaded into a Pandex® machine, washed, evacuated and read. Sample detection was performed by excitation at 485 nm and reading the resulting epifluorescence at 535 nm.
A culture of E. coli K12 L507/pHP10D was grown to mid-log phase at 32° C. in LB media containing 12.5 μg/ml tetracycline. The cultivation temperature was quickly elevated to 40° C. to induce gene expression, and the cells were allowed to grow for 2.5 hours at this temperature before the culture was quickly chilled on ice. The cells were centrifuged and the cell pellet was resuspended in 20 ml 50 mmol MES buffer (pH 6.0) containing 1 mmol EDTA, 1 mmol DTT, 1 mmol PMSF, and 10% glycerol (Buffer A). Cells were lysed by sonication using a Fischer Model 300 Dismembrator and a microtip probe. […] Enzymatic activity was measured by HPLC using the synthetic peptide SQNYPIV as described in Margolin et al., Biochem. Biophys. Res. Commun., 167, 554-560 (1990); the production of the pl peptide (SQNY) was measured.
Active fractions were pooled, made 1.2M in ammonium sulfate, and applied to a hexyl agarose column (2.0×18 cm) equilibrated in Buffer A containing 1.2M ammonium sulfate. The sample, in 125 ml (1.85 mg/ml), was loaded at a flow rate of 1 ml/min at 4° C. […] The column was then washed isocratically in Buffer A for 120 min. Active fractions were pooled, concentrated to 10 ml using an Amicon stirred cell with a YM-10 membrane, and applied at 1 ml/min to a MonoS cation exchange column (1.0×10 cm) equilibrated in Buffer A. After washing isocratically for 30 min, protease was eluted using a linear gradient of 0-0.45M NaCl in Buffer A over 40 min followed by an isocratic wash with Buffer A containing 0.45M NaCl over 30 min. Chromatography was performed at 25° C.
Pooled active fractions were concentrated to 200 ul using an Amicon stirred cell and a YM-10 membrane, and the protease was then applied to a Superose 6 size exclusion column equilibrated in Buffer A containing 0.1M NaCl. The column was washed isocratically in this buffer at a flow rate of 0.5 ml/min.

[1] = purified HIV-1 protease, MES-ALB buffer pH 5.5, 1 h preincubation, 16 h with substrate, room temperature, IC50 values for Examples 2-70 are standardized relative to Ex 1

Work on `CC(C)(C)NC(=O)c1ccccc1C[C@@H](O)[C@H](Cc1ccccc1)NC(=O)[C@H](CC(N)=O)NC(=O)C1Cc2ccccc2CN1` (single isomer, unassigned) [Example 37, [1S-(1R*, 4R*, 5S*)]-N-(1-(2-amino-2-oxoethyl)-2-oxo-3-aza-4-phenylmethyl-5-hydroxy-6-(2-(1-t-butylamino-1-oxomethyl)phenyl)hexyl)-3-(1,2,3,4-tetrahydroisoquinolinyl) carboxamide] yielded an IC50 of 34.2 nM.

For “[1S-(1R*, 4R*, 5S*)]-N-(1-(2-amino-2-oxoethyl)-2-oxo-3-aza-4-phenylmethyl-5-hydroxy-6-(2- (1-t-butylamino-1-oxomethyl)phenyl)hexyl)-2(6, 7, 8, 9-tetrahydronaphthyl) carboxamide [Example 33]”, the “Fluorescence Assay IC50” value [1] was 1.4 ng/mL.

Work on `Cc1ccc2ccc(C(=O)N[C@@H](CC(N)=O)C(=O)N[C@@H](Cc3ccccc3)[C@H](O)Cc3ccccc3C(=O)NC(C)(C)C)nc2c1` [Example 23, [1S-(1R*, 4R*, 5S*)]-N-(1-(2-amino-2-oxoethyl)-2-oxo-3-aza-4-phenylmethyl-5-hydroxy-6-(2-(1-t-butylamino-1-oxomethyl)phenyl)hexyl)-7-methylquinolin-2-yl carboxamide] yielded an IC50 of 0.641 nM.

With `CCC(C)[C@H](NC(=O)OCc1ccc2ccccc2n1)C(=O)N[C@@H](Cc1ccccc1)[C@H](O)Cc1ccccc1C(=O)NC(C)(C)C` (stereo partly drawn) [Example 38, [2R-(2R*, 3S*, 6S*)]-N-t-butyl-2-(2-hydroxy-3-phenylmethyl-4-aza-5-oxo-6-(1-methylpropyl)-6-(N-quinolin-2-ylmethoxycarbonylamino)hexyl)benzamide] the IC50 was 1.21 nM.

`CC(C)(C)NC(=O)c1ccccc1C[C@@H](O)[C@H](Cc1ccccc1)NC(=O)[C@H](CC(N)=O)NC(=O)c1ccc2cc(Cl)ccc2n1` [Example 55, [1S-(1R*, 4R*, 5S*)]-N-(1-(2-amino-2-oxoethyl)-2-oxo-3-aza-4-phenylmethyl-5-hydroxy-6-(2-(1-t-butylamino-1-oxomethyl)phenyl)hexyl)-6-chloroquinolin-2-yl carboxamide] was tested, and the IC50 was 1.26 nM.

`CC(C)(C)NC(=O)c1ccccc1C[C@@H](O)[C@H](Cc1ccccc1)NC(=O)[C@H](CO)NC(=O)OCc1ccccc1` [Example 12, [2R-(2R*, 3S*, 6S*)]-N-t-butyl-2-(2-hydroxy-3-phenylmethyl-4-aza-5-oxo-6-hydroxymethyl-6-(N-phenylmethoxycarbonyl-amino)hexyl)benzamide] was tested, and the IC50 was 890 nM.

With `CC(C)(C)NC(=O)c1oc2ccccc2c1C[C@@H](O)[C@H](Cc1ccccc1)NC(=O)[C@H](CC(N)=O)NC(=O)c1ccc2ccccc2n1` [Example 42, [1S-(1R*, 4R*, 5S*)]-N-(1-(2-amino-2-oxoethyl)-2-oxo-3-aza-4-phenylmethyl-5-hydroxy-6-(2-(1-t-butylamino-1-oxomethyl)benzofur-3-yl)hexyl)-2-quinolinyl carboxamide] the IC50 was 523 nM.

For `CC(C)(C)NC(=O)c1ccccc1C[C@@H](O)[C@H](Cc1ccccc1)NC(=O)[C@H](CC(N)=O)NC(=O)c1ccc2cccc(Cl)c2n1` [Example 62, [1S-(1R*, 4R*, 5S*)]-N-(1-(2-amino-2-oxoethyl)-2-oxo-3-aza-4-phenylmethyl-5-hydroxy-6-(2-(1-t-butylamino-1-oxomethyl)phenyl)hexyl)-8-chloroquinolin-2-yl carboxamide], the IC50 was 5.9 nM.

Compound `CC(C)(C)NC(=O)c1ccccc1C[C@@H](O)[C@H](Cc1ccccc1)NC(=O)[C@H](CC(=O)NNc1cccnc1)NC(=O)c1ccc2ccccc2n1` [Example 50, [1S-(1R*, 4R*, 5S*)]-N-(1-(2-(N-(N-3-pyridyl)amino)amino)-2-oxoethyl)-2-oxo-3-aza-4-phenylmethyl-5-hydroxy-6-(2-(1-t-butylamino-1-oxomethyl)phenyl)hexyl)-2-quinolinyl carboxamide] has an IC50 [1] of 0.228 nM.

`CC(C)(C)NC(=O)c1ccccc1CC(O)C(Cc1ccccc1)NC(=O)C(CC(N)=O)NC(=O)c1cccc2cccnc12` (stereo not drawn) [Example 61, [1S-(1R*, 4R*, 5S*)]-N-(1-(2-amino-2-oxoethyl)-2-oxo-3-aza-4-phenylmethyl-5-hydroxy-6-(2-(1-t-butylamino-1-oxomethyl)phenyl)hexyl)-8-quinolinyl carboxamide] was tested, and the “Fluorescence Assay IC50” value [1] was 1.3 ng/mL.

With `CC(C)[C@H](NC(=O)c1ccc2ccccc2c1)C(=O)N[C@@H](Cc1ccccc1)[C@H](O)Cc1ccccc1C(=O)NC(C)(C)C` [Example 35] the IC50 [1] was 131 nM.

With `CC(C)(C)NC(=O)c1ccccc1C[C@@H](O)[C@H](Cc1ccc(OCc2ccccc2)cc1)NC(=O)[C@H](CC(N)=O)NC(=O)c1ccc2ccccc2n1` [Example 9, [1S-(1R*, 4R*, 5S*)]-N-(1-(2-amino-2-oxoethyl)-2-oxo-3-aza-4-(4-phenylmethyloxy)phenylmethyl-5-hydroxy-6-(2-(1-t-butylamino-1-oxomethyl)phenyl)hexyl)-2-quinolinyl carboxamide] the IC50 was 12 nM.

Work on `CC(C)(C)NC(=O)c1ccccc1C[C@@H](O)[C@H](Cc1ccc(O)cc1)NC(=O)[C@H](CC(N)=O)NC(=O)c1ccc2ccccc2n1` [Example 10, [1S-(1R*, 4R*. 5S*) ]-N-(1-(2-amino-2-oxoethyl)-2-oxo-3-aza-4-(4-hydroxyphenyl)methyl-5-hydroxy-6-(2-(1-t-butylamino-1-oxomethyl)phenyl)hexyl)-2-quinolinyl carboxamide] yielded an IC50 of 94.3 nM.

With `Cc1cc(C)c2ccc(C(=O)N[C@@H](CC(N)=O)C(=O)N[C@@H](Cc3ccccc3)[C@H](O)Cc3ccccc3C(=O)NC(C)(C)C)nc2c1` [Example 63, [1S-(1R*, 4R*, 5S*)]-N-(1-(2-amino-2-oxoethyl)-2-oxo-3-aza-4-phenylmethyl-5-hydroxy-6-(2-(1-t-butylamino-1-oxomethyl)phenyl)hexyl)-5,7-dimethylquinolin-2-yl carboxamide] the IC50 was 0.784 nM.

`CC(C)(C)NC(=O)c1ccccc1C[C@@H](O)[C@H](Cc1ccccc1)NC(=O)[C@H](CC(=O)Nc1ccncc1)NC(=O)c1ccc2ccccc2n1` [Example 48, [1S-(1R*, 4R*, 5S*)]-N-(1-(2-(N-pyrid-4-yl)amino)-2-oxoethyl)-2-oxo-3-aza-4-phenylmethyl-5-hydroxy-6-(2-(1-t-butylamino-1-oxomethyl)phenyl)hexyl)-2-quinolinyl carboxamide] gave an IC50 of 1.16 nM.

`CC(C)(C)NC(=O)c1ccccc1C[C@@H](O)[C@H](Cc1ccccc1)NC(=O)[C@H](CC(N)=O)NC(=O)c1ccccn1` [Example 29, [1S-(1R*, 4R*, 5S*)]-N-(1-(2-amino-2-oxoethyl)-2-oxo-3-aza-4-phenylmethyl-5-hydroxy-6-(2-(1-t-butylamino-1-oxomethyl)phenyl)hexyl)-2-pyridyl carboxamide] showed an IC50 of 129 nM.

`CC1(NC(=O)c2ccccc2C[C@@H](O)[C@H](Cc2ccccc2)NC(=O)[C@H](CC(N)=O)NC(=O)c2ccc3ccccc3n2)CCCC1` [Example 69, [1S-(1R*, 4R*, 5S*) ]-N-(1-(2-amino-2-oxoethyl) -2-oxo-3-aza-4-phenylmethyl-5-hydroxy-6-(2-(1-(1-methylcyclopent-1-yl)amino-1-oxomethyl)phenyl)hexyl)-2-quinolinyl carboxamide] was tested, and the IC50 was 1.2 nM.

Work on `CC(C)(C)NC(=O)c1ccccc1C[C@@H](O)[C@H](Cc1ccccc1)NC(=O)[C@H](CC(N)=O)NC(=O)NCc1ccccc1` [Example 57, [2R-(2R*, 3S*, 6S*)]-N-t-butyl-2-(2-hydroxy-3-phenylmethyl-4-aza-5-oxo-6-(2-amino-2-oxoethyl)-7-aza-8-oxo-8-(N-benzylamino)octyl)benzamide] yielded an IC50 of 16.5 nM.

Reference: patent US5719287A, “Intermediates for inhibitors of HIV protease and method of preparation thereof” (Eli Lilly and Company, priority 1995, dated 1998)
